Data reported in US6683110B1, “Methyl esters of substituted 4-oxo-2-butenoic acid for treatment of tuberculosis” (University of Central Florida, priority 2001, dated 2004).

What was measured:
in vivo = conditions: both sexes, mouse, ip, white mice, intraperitoneal injection of 2% solution in starch, 14 day observation
Protocol: Animal Toxicity Bioassay. Acute toxicity was studied on white mice of both sexes with weight ranging between 18-26 grams under intraperitoneal injection of 2% solution of tested compound in starch (the compound was dissolved in starch slime and injected) on the basis of 0.1 ml of solution per 10 g of the animal weight. Each dose was tested on the group of 6 animals that were observed during 14 day period. (This method was approved by the Pharmacology committee of Russian Ministry of Health and has been widely used since 1968.) Averaged lethal dose (LD50) of the compound was computed using results of experiments on 5-7 groups of animals using the method of Litchfield and Wilkinson. (Belenkii M. L. “Elements of quantative determination of the pharmacological effect,” Leningrad, 1963, 71 pages).
The acute toxicity of isoniazid is as following: LCLo (lowest published lethal concentration) for man is 100 mg/kg. […] All toxicity information about isoniazid can also be found on the web site: http://ntp-server.niehs.nih.gov/htdocs/Chem H&S/NTP Chem5/Radian54-85-3.html

[1] = tested on: M. tuberculosis (ATCC 25177); assay: BACTEC 460 TB radiometric growth inhibition bioassay (bacteriostatic activity); type: cell-based, Mycobacterium tuberculosis; conditions: final concentration of 0.1 mg/ml in Bactec 7H12 B+ medium; percent inhibition from growth index
Stability in solution = type: physicochemical; conditions: decomposes quickly when the solution is heated or stored for a long time, with formation of OF-12
man = conditions: cited from earlier work

| SMILES | LD50 at 14 day (in vivo) [mg/kg] | percent activity against Mycobacterium tuberculosis [1] [%] | Stability in solutions (Stability in solution) | acute ingestion leading to mild toxicity (man; adults, acute ingestion) [g] | ingestion that may be fatal (man; adults, acute ingestion) [g] | ingestion usually fatal if not appropriately treated (man; adults, acute ingestion) [g] | LCLo (lowest published lethal concentration) (man; man) [mg/kg] |
| --- | --- | --- | --- | --- | --- | --- | --- |
| CCOc1ccc(C(=O)C=C(NN=C2c3ccccc3-c3ccccc32)C(=O)OC)cc1 [OF-12, 4-(4-Ethoxyphenyl)-2-(N′-fluoren-9-ylidenehydrazino)-4-oxobut-2-enoic acid methyl ester] | > 1500 | 81 | – | – | – | – | – |
| CCOc1ccc(C(=O)CC(O)(NN=C2c3ccccc3-c3ccccc32)C(=O)OC)cc1 (centres unmarked) [OF-13, 4-(4-Ethoxyphenyl)-2-(N′-fluoren-9-ylidenehydrazino)-2-hydroxy-4-oxobutyric acid methyl ester] | > 1500 | 88 | not stable in solutions | – | – | – | – |
| COC(=O)C(=CC(=O)C(C)(C)C)Nc1ccc(Br)cc1 [OF-15, 2-(4-Bromophenylamino)-5,5-dimethyl-4-oxohex-2-enoic acid methyl ester] | > 1500 | 98 | – | – | – | – | – |
| NNC(=O)c1ccncc1 [isoniazid, isonicotinic acid hydrazide] | – | – | – | ≥ 1.5 | 6 to 10 | 15 | 100 |
